What is called AUC(0-t) is the area under the concentration-time curve up to a stated or last time point. A lower AUC(0-t) goes with less exposure. One may read the clearance as the volume of plasma or blood freed of the substance per unit of time. By bioavailability is commonly meant dose-corrected exposure relative to a reference, in per cent.

Here are results for two molecules from patent EP4729529A1, “PREPARATION OF PEPTIDE INHIBITOR OF INTERLEUKIN-23 RECEPTOR AND USE THEREOF” (Xizang Haisco Pharmaceutical Co., Ltd., priority 2023, dated 2024).

Positions of bridges follow the written chain, without caps; N, C: chain ends. Non-standard residues stand in square brackets, D forms with d. Residues, ends and D or L forms follow the SMILES beside them. Phe(4-OC2H4NH2,2,3-(CH2)3) = NCCOc1ccc(C[C@H](N)C(=O)O)c2c1CCC2; Trp(7-cPr) = N[C@@H](Cc1c[nH]c2c(C3CC3)cccc12)C(=O)O; Trp(7-Me) = Cc1cccc2c(C[C@H](N)C(=O)O)c[nH]c12; 2Nal = N[C@@H](Cc1ccc2ccccc2c1)C(=O)O; Thp(SO2) = NC1(C(=O)O)CCS(=O)(=O)CC1; 3Pal = N[C@@H](Cc1cccnc1)C(=O)O; Pen = CC(C)(S)[C@H](N)C(=O)O; Sar = CNCC(=O)O

One series addresses T1, IL-23α/IL-12β and IL-23R (Homo sapiens, UniProt Q5VWK5).
T1 construct: purchased ACRO ILR-H82F3 (IL-23R); ILB-H52W5 (IL-23α/IL-12β)
T1 sequence (Q5VWK5 24-353 limits assumed): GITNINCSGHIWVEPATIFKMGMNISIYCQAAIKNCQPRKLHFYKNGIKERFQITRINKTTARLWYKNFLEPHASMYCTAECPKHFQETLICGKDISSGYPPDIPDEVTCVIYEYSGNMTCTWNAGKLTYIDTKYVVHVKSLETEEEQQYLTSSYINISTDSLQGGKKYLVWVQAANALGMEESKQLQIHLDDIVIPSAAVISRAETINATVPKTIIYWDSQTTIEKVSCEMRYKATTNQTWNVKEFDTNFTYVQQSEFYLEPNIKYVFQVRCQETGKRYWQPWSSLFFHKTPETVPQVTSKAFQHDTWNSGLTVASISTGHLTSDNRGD
Put plainly: IL-23α/IL-12β and IL-23R binding assay (TR-FRET/HTRF). The conditions noted are these: inhibition of the binding of IL-23α/IL-12β to IL-23R, TR-FRET; both proteins 0.3 nM. In a few lines: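 TR-FRET with IL-23α/IL-12β and IL-23R each at 0.3 nM in PPI buffer; compound preincubated with IL-23α/IL-12β 60 min at 25°C, then IL-23R and Tb/d2 detection reagents added for 60 min. HTRF 665/620 ratio; IC50 by nonlinear regression.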
On the technique in general: TR-FRET usually uses a lanthanide donor and a delayed reading to cut background.

The target of another series is T2, IL-23R (Homo sapiens, UniProt Q5VWK5).
T2 construct: host or cells: HEK-blue IL23 reporter gene cell line
T2 sequence (Q5VWK5 24-629): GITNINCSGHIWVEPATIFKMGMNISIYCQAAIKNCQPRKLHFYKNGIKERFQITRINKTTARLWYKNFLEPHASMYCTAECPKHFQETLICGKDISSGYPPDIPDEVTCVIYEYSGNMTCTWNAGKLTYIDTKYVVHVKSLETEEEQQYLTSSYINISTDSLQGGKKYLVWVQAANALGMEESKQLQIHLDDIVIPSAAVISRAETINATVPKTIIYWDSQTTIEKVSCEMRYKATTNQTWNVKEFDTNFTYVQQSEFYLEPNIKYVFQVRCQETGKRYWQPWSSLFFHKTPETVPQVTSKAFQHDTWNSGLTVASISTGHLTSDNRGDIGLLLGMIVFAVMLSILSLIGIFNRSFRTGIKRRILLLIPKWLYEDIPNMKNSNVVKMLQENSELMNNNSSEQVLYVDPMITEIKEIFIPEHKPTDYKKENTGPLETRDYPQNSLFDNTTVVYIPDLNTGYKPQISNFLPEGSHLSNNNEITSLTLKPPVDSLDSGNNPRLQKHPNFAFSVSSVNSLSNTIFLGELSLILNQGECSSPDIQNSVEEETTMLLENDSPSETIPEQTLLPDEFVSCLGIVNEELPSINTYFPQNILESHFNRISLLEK
Description: IL-23R reporter gene assay (HEK-blue IL23 reporter gene cell line, rhIL23 stimulation). The format is cell-based. The conditions noted are these: Inhibition of IL-23R, rhIL23 1 ng/mL, 24 hours. How it is done: 2. IL-23R reporter gene assay
The purpose of this assay was to assess the ability of compounds to inhibit the binding of IL23p19 to IL23R in a reporter gene system. The HEK-blue IL23 reporter gene cell line (Invivogen, hkb-il23) was cultured in DMEM + 10% FBS + 100 ug/mL Normocin medium. When the cell density reached 80%-90%, 5000 cells/well were plated into a 384-well plate, and the plate was incubated overnight at 37°C with 5% CO2. Then, the compound stock solution was diluted in DMSO, and 40 nL of the dilution was transferred into the 384-well culture plate by Echo. The plate was incubated at 37°C with 5% CO2 for 0.5 hours. 40 nL/well of rhIL23 (R&D, 1290-IL) was added to the 384-well cell culture plate at a final concentration of 1 ng/mL, and the plate was incubated at 37°C with 5% CO2 for 24 hours. 18 µL of Quanti-Blue™ solution was added to a new 384-well plate. 2 µL/well of cell culture supernatant was transferred into the 384-well plate prepared in Step 6, and the plate was incubated at 37°C with 5% CO2 for 1 hour. Absorbance values at […] were read on BMG. The binding ability of the compounds was assessed using the following formula, and IC50 values were obtained by fitting with Graphpad.
(§1) Calculation formula of inhibition rate: [formula] • where Data negative: mean of DMSO control group; and • Data positive: mean of non-IL23-stimulated group
The calculation formula of IC50 was as follows: Y = Bottom + (Top−Bottom)/(1+10^(∧)((LogIC50−X)*HillSlope)) [formula] • where X: concentration of compound; and • Y: inhibition rate of compound Table 2. Inhibition of IL-23R by test compounds
(In general: A reporter such as luciferase makes a cellular process visible.)

For series [1], the target named is (Homo sapiens, UniProt Q5VWK5). Put plainly: IL-23-stimulated pSTAT3 detection assay in PBMCs (ELISA). The format is cell-based. The settings on record: rhIL23 stimulation 30 minutes, read-out: pSTAT3 inhibition/IC50. How it is done: 3. IL-23-stimulated pSTAT3 detection assay in PBMCs
Cryopreserved human PBMCs were thawed, and seeded onto a plate previously covered with an anti-CD3 antibody at 1 × 10^6 cells/well. Then, an anti-CD28 antibody was added to the plate, and the cells were incubated at 37°C with 5% CO2 for 5 days. On Day 5, the cells were seeded onto a 96-well plate at a density of 100K cells/well after 4 hours of stimulation by FBS starvation. The diluted Compound was transferred into the 96-well cell culture plate, and the plate was incubated at 37°C with 5% CO2 for 1 hour. rhIL23 (R&D, 1290-IL) was added to the cell culture plate, and the plate was incubated at 37°C with 5% CO2 for 30 minutes. The cells in the wells were lysed on ice with a lysis buffer containing 1× PHOSstop solution for 30 minutes, and the plate was centrifuged at 1000 rpm for 1 minute. Then, the supernatant was transferred into a 96-well ELISA plate, and pSTAT3 ELISA assay was performed according to the instructions of the kit (CST, 7300CA). Absorbance values at […] were read on PHERAstar FSX (BMG LRBTECH). The inhibition rate of the compounds was assessed using the following formula, and IC50 values were obtained by fitting with Graphpad.
as §1
The calculation formula of IC50 was as follows: Y = Bottom + (Top−Bottom)/(1+10^(∧)((LogIC50−X)*HillSlope)) [formula] • where X: concentration of compound; and • Y: inhibition rate of compound. Table 3. pSTAT3 inhibition

Series [2] is described as follows: Pharmacokinetic test in mice (intravenous and intragastric, plasma LC-MS/MS). The settings on record: male, mouse, Balb/c mice. The format is in vivo. How it is done: 4. Pharmacokinetic test in mice
4.1. Experimental animals: Male Balb/c mice (20-25 g, 18 mice/compound) were purchased from Chengdu Dossy Experimental Animals Co., Ltd.
4.2. Experimental design: On the day of the experiment, the Balb/c mice were randomly grouped by body weight. The animals were fasted with water available for 12-14 h one day before the administration, and were fed 4 h after the administration. Table 4. Administration information
Before and after administration, 0.06 mL of blood was taken from the orbit under isoflurane anaesthesia, and placed in an EDTAK2 centrifuge tube. The tube was centrifuged at 5000 rpm at 4°C for 10 min, and plasma was collected. The blood collection time points for the intravenous group and intragastric group were both 0 min, 5 min, 15 min, 30 min, 1 h, 2 h, 4 h, 6 h, 8 h, and 24 h. Before analysis and detection, all samples were stored at -80°C, and the samples were quantitatively analysed by LC-MS/MS. Table 5. Pharmacokinetic parameters of test compounds in mouse plasma

Sequence of (Homo sapiens, UniProt Q5VWK5) (Q9NPF7 20-189 partner, other chains not shown): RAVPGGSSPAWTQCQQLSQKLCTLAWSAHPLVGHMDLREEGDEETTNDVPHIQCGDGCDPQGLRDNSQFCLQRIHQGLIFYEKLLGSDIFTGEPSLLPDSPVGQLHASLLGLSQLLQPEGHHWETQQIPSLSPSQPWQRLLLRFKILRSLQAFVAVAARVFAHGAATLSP
Sequence of (Homo sapiens, UniProt Q5VWK5) (P29460 23-328 partner, other chains not shown): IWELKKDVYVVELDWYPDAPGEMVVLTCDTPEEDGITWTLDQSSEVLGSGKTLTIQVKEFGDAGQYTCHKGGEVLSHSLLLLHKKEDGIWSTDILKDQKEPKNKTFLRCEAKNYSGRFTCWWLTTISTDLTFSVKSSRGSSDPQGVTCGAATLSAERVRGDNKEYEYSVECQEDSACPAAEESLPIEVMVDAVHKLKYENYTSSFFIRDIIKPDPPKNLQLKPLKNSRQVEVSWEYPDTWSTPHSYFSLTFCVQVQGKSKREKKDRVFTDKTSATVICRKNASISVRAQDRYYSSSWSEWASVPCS

With `CC(=O)N[C@@H]1C(=O)N[C@@H](Cc2c[nH]cn2)C(=O)N[C@@H]([C@@H](C)O)C(=O)N[C@@H](Cc2c[nH]c3c(C)cccc23)C(=O)N[C@@H](CCC(N)=O)C(=O)N[C@H](C(=O)N[C@@H](Cc2ccc(OCCN)c3c2CCC3)C(=O)N[C@@H](Cc2ccc3ccccc3c2)C(=O)NC2(C(=O)N[C@@H](CCC(=O)O)C(=O)N[C@@H](CC(N)=O)C(=O)N[C@@H](Cc3cccnc3)C(=O)N(C)CC(N)=O)CCS(=O)(=O)CC2)C(C)(C)SSC1(C)C` [Compound 15] (Ac-[Pen]HT[Trp(7-Me)]Q[Pen][Phe(4-OC2H4NH2,2,3-(CH2)3)][2Nal][Thp(SO2)]EN[3Pal][Sar]-NH2; disulfide 1-6), the IC50 came out at 0.075 nM at IL-23α/IL-12β and IL-23R; 5.26 nM against IL-23R; 0.0062 nM in series [1].
Take `CC(=O)N[C@@H]1C(=O)N[C@@H](Cc2c[nH]cn2)C(=O)N[C@@H]([C@@H](C)O)C(=O)N[C@@H](Cc2c[nH]c3c(C4CC4)cccc23)C(=O)N[C@@H](CCC(N)=O)C(=O)N[C@H](C(=O)N[C@@H](Cc2ccc(OCCN)c3c2CCC3)C(=O)N[C@@H](Cc2ccc3ccccc3c2)C(=O)NC2(C(=O)N[C@@H](CCC(=O)O)C(=O)N[C@@H](CC(N)=O)C(=O)N[C@@H](Cc3cccnc3)C(=O)N(C)CC(N)=O)CCS(=O)(=O)CC2)C(C)(C)SSC1(C)C` [Compound 16] (Ac-[Pen]HT[Trp(7-cPr)]Q[Pen][Phe(4-OC2H4NH2,2,3-(CH2)3)][2Nal][Thp(SO2)]EN[3Pal][Sar]-NH2; disulfide 1-6): the IC50 at IL-23α/IL-12β and IL-23R was 0.063 nM; on IL-23R it was 6.07 nM; in series [1], 0.0069 nM. For the same molecule, the AUC(0-t) in series [2] (iv, i.v. (1 mg/kg)) stood at 5440 ± 220 ng·h/mL; in series [2] (po, i.g. (10 mg/kg)) it was 143 ± 13 ng·h/mL. Further, the clearance in series [2] (iv, i.v. (1 mg/kg)) was determined as 3.06 ± 0.13 mL/min/kg. Moreover, the Vd in series [2] (iv, i.v. (1 mg/kg), read-out: Vdss) worked out at 0.378 ± 0.022 L/kg. In series [2] (po, i.g. (10 mg/kg)), this molecule showed a bioavailability of 0.263 ± 0.023%.
